Assay results as given in patent publication EP0065513B1, “ANTIMYCOTIC SYNERGISTIC PHARMACEUTICAL COMPOSITIONS AND PROCESS FOR THE PREPARATION THEREOF” (CHINOIN Gyogyszer és Vegyészeti Termékek Gyára RT., priority 1980, dated 1982).

Assays:
Candida albicans = test: In vitro growth inhibition test in liquid nutrient medium; assay type: cell-based
Protocol: (§1) Candida albicans and Trichomonas vaginalis strains are cultured in a liquid nutrient medium. Incubation is carried out at 37°C for 48 hours. Each nutrient medium (10 ml) is inoculated with 1000 germs per ml. The number of germs is determined in a Burker chamber. Dilution series are prepared from the stock inoculum by using a physiological sodium chloride solution. To the mixture of the nutrient medium and 0.5 ml a physiological sodium chloride solution 2-methyl-1,4-naphthoquinone, nystatin and mixtures thereof are added.
(§2) The minimal inhibitory concentration of nystatin is determined in the manner disclosed above.
(§3) 1.25 mg/10 ml of 2-methyl-1,4-naphthoquinone is added to an amount of nystatin being the one fiftieth (1/50) part of the minimal inhibitory concentration. Complete inhibition of the growth of Candida albicans and Trichomonas vaginalis was observed.

Trichomonas vaginalis = test: as above; assay type: cell-based
Protocol: as §1, §2, §3

[1] = system: vulvovaginitis candidomycetica; test: In vivo test: treatment of patients with suppositories; details: patients with vulvovaginitis candidomycetica treated with suppositories; number of patients 35
Protocol: Patients suffering of vulvovaginitis candidomycetica are treated with suppositories according to Example 1. As control suppositories containing no 2-methyl-1,4-naphthoquinone-sodium sulfite adduct but nystatin only are used. Number of patients 35.

[2] = concentration smaller than 5 mg/10 ml
[3] = liquid nutrient medium 10 ml, 1000 germs per ml, 37°C, 48 hours

Structure (SMILES)	activity at a smaller concentration than the minimal inhibitory concentration (Candida albicans; [2])	minimal inhibitory concentration (Candida albicans; [3])	activity at a smaller concentration than the minimal inhibitory concentration (Trichomonas vaginalis; [2])	minimal inhibitory concentration (Trichomonas vaginalis; [3])	Recovery, in % of the cases [1]
CC1=CC(=O)c2ccccc2C1=O [2-methyl-1,4-naphthoquinone]	completely inactive	5 mg/10 ml	completely inactive	5 mg/10 ml	
C[C@@H]1[C@H](O)[C@@H](C)/C=C/C=C/CC/C=C/C=C/C=C/C=C/C(O[C@H]2O[C@H](C)[C@@H](O)[C@H](N)[C@@H]2O)CC2O[C@](O)(CC(O)C(O)CCC(O)CC(O)CC(O)CC(=O)O[C@H]1C)CC(O)C2C(=O)O (some centres unmarked) [Nystatin]					66%
